Measured values: the supplement of paper PMC3974653
Where a name gives a salt, the structure may show the parent alone.

Tested on: MTT (mouse pheochromocytoma)
Assay: IC50 of cell viability (ATP content)
Conditions: (24 or 48 h)
Procedure, shortened: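 Library compounds in DMSO (23 nl by pintool, 8 concentrations, final 0.5 nM to 46 µM) were applied for 24 or 48 hrs to MTT mouse pheochromocytoma cells that had been cultured overnight at 37°C, 5% CO2 in white 1536-well plates. Cell viability was measured by CellTiter-Glo ATP luminescence, read after 15 minutes, with positive-control wells set at 100% and DMSO wells at 0%. A four-parameter logistic fit of the normalised signals yielded the IC50.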

Compound	IC50 of cell viability
CCC(C)(C)OC(=O)N[C@@H](Cc1c[nH]c2ccccc12)C(=O)N[C@@H](CCSC)C(=O)N[C@@H](CC(=O)O)C(=O)N[C@@H](Cc1ccccc1)C(N)=O [AMOGASTRIN]	> 46 µM
COC(C(=O)C(O)C(C)O)C1Cc2cc3cc(OC4CC(OC5CC(O)C(OC)C(C)O5)C(OC(C)=O)C(C)O4)c(C)c(O)c3c(O)c2C(=O)C1OC1CC(OC2CC(OC3CC(C)(O)C(OC(C)=O)C(C)O3)C(O)C(C)O2)C(O)C(C)O1 (configuration not stated) [CHROMOMYCIN A3]	> 46 µM
CN(CCOc1ccc(CC2SC(=O)NC2=O)cc1)c1ccccn1 (configuration not stated) [ROSIGLITAZONE]	> 46 µM
Cc1nccn1C[C@@H]1CCc2c(c3ccccc3n2C)C1=O [Ondansetron Hydrochloride]	> 46 µM
COC[C@@H](c1ccc(C(F)(F)F)cc1)N1CCN(C2(C)CCN(C(=O)c3c(C)ncnc3C)CC2)C[C@@H]1C [vicriviroc maleate]	> 46 µM
COc1ccccc1Oc1c(N[S+](=O)([O-])c2ccc(C(C)(C)C)cc2)nc(-c2ncccn2)nc1OCCO [BOSENTAN]	> 46 µM
CN1C(=O)CN=C(c2ccccc2)c2cc(Cl)ccc21 [Diazepam]	> 46 µM
CC(CO)NC(=O)C1C=C2c3cccc4[nH]cc(c34)CC2N(C)C1 (configuration not stated) [ERGONOVINE]	> 46 µM
CCCCCCCCCCCCCCCC(=O)OC[C@H](O)[C@H]1OC[C@@H](O)[C@@H]1O [SORBITAN MONOPALMITATE]	> 46 µM
CC#CC[C@@H](C)[C@@H](O)/C=C/[C@H]1[C@H]2c3cccc(CCCC(=O)[O-])c3O[C@H]2C[C@@H]1O [BERAPROST SODIUM]	> 46 µM
CCCCC[C@H](O)/C=C\[C@H]1[C@H](C/C=C\CCCC(=O)O)[C@@H](O)C[C@H]1O.COC(N)(CO)CO [Dinoprost trometamol]	> 46 µM
CC1(O)CCC2C3CCC4=CC(=O)CCC4(C)C3(F)C(O)CC21C (configuration not stated) [Fluoxymesterone]	> 46 µM
CC1Cc2ccccc2N1NC(=O)c1ccc(Cl)c([S+](N)(=O)[O-])c1 (configuration not stated) [INDAPAMIDE]	> 46 µM
C[C@@H]1COC2=C3N1\C=C(\C(O)=O)C(=O)C3=CC(=C2N4CCN(C)CC4)F [Ofloxacin]	> 46 µM
[S]=[Sb+]([S-])[S][Sb+](=[S])[S-] [ANTIMONY PENTASULFIDE]	> 46 µM
COc1cccc2c1C(=O)c1c(O)c3c(c(O)c1C2=O)C[C@](O)(C(=O)CO)C[C@@H]3O[C@H]1C[C@H](N)[C@@H](O)[C@H](C)O1 [Adriamycin-DNA hydrochloride]	> 46 µM
c1ccc(OCc2ccc(CCCN3CCOCC3)cc2)cc1 [FOMOCAINUM]	> 46 µM
CO/N=C(/C(=O)N[C@@H]1C(=O)N2C(C(=O)O)=C(CSC(=O)c3ccco3)CSC12)c1csc(N)n1 (some centres not stated) [CEFTIOFUR CRYSTALLINE FREE ACID]	> 46 µM
CCCCCCC(=O)O[C@H]1CC[C@H]2[C@@H]3CCC4CC(=O)\C=C(C)/[C@]4(C)[C@H]3CC[C@]12C (some centres not stated) [METENOLONE ENANTHATE]	> 46 µM
CCC1(CC2=C(O1)C=CC=C2)\C3=N\CCN3 (configuration not stated) [EFAROXAN]	> 46 µM
CCCCCCCCCCCCOS(=O)(=O)[O-] [Sodium dodecyl sulfate]	> 46 µM

Compound	IC50 of cell viability
O=C(O)COc1nc(Cl)c(Cl)cc1Cl [Triclopyr]	> 46 µM
Cc1cccc(C)c1NC(=O)CN(CC(=O)O)CC(=O)O [Lidofenin]	> 46 µM
CCN(CCO)CCn1c(Cc2ccccc2)nc2c1c(=O)n(C)c(=O)n2C [Bamifylline Hydrochloride]	> 46 µM
Cl.Nc1c2c(nc3c1CCC3)CCCC2.O [IPIDACRINE HYDROCHLORIDE HYDRATE]	> 46 µM
CCCCCCCCCCCC(=O)N(CCO)CCO [LAURIC DIETHANOLAMIDE]	> 46 µM
Cn1ccnc1S [Methimazole]	> 46 µM
CC1(C(=O)O)CCC2(C)CCC3(C)C(=CC(=O)[C@@H]4C5(C)CC[C@H](O[C@H]6O[C@H](C(=O)O)C(O)C(O)[C@H]6O[C@@H]6O[C@H](C(=O)O)C(O)C(O)C6O)C(C)(C)[C@@H]5CCC43C)[C@@H]2C1 (some centres not stated) [GLYCYRRHIZIC ACID, MONOSODIUM SALT]	> 46 µM
NC(=O)NS(=O)(=O)c1ccc(N)cc1 [SULFACARBAMIDUM]	> 46 µM
CC(=O)OCC(=O)[C@@]1(O)[C@@H](C[C@H]2[C@@H]3CC\C4=C\C(=O)\C=C/[C@]4(C)[C@@]3(F)[C@@H](O)C[C@]12C)OC(C)=O [Triamcinolone diacetate]	> 46 µM
Clc1cccc(Cl)c1N=C1NCCN1 [CLONIDINE]	> 46 µM
CCCCC(CC)COC(=O)/C=C/c1ccc(OC)cc1 (configuration not stated) [Octinoxate]	> 46 µM
C[C@@]12CCC[C@H]1[C@@H]1CC[C@H]3C[C@@H](O)CC[C@]3(C)[C@H]1CC2	> 46 µM
CC(=O)N(C[C@@H](C)C(=O)O)c1c(I)cc(I)c(N)c1I [Iocetamic acid]	> 46 µM
Nc1c(/N=N/c2ccc(-c3ccc(/N=N/c4cc(S(=O)(=O)[O-])c5ccccc5c4N)cc3)cc2)cc(S(=O)(=O)[O-])c2ccccc12 [CI DIRECT RED 28]	> 46 µM
CCCCOC(=O)C(=O)Nc1cccc(-c2nnn[nH]2)c1 [Tazanolast]	> 46 µM
OC[C@H]1O[C@H](C[C@@H]1O)N2\C=C(F)/C(=O)NC2=O [Floxuridine]	> 46 µM
OC(=O)CN(CC(O)=O)CC1=CC/2=C(OC/3=C/C(=O)/C(=C\C3=C2C4=CC=CC=C4C(O)=O)CN(CC(O)=O)CC(O)=O)C=C1O [CALCEIN]	> 46 µM
COc1cc(C(=O)N2CCOCC2)cc(OC)c1OC [TRIMETOZINUM]	> 46 µM
NC(=O)N/N=C/c1ccc([N+](=O)[O-])o1 [5-Nitro-2-furaldehyde semicarbazone]	> 46 µM
OCCCc1ccccc1 [3-Phenyl-1-propanol]	> 46 µM
Nc1nc(Cl)nc2c1ncn2C1CC(O)C(CO)O1 (configuration not stated)	> 46 µM

Compound	IC50 of cell viability
C[C@]12CCC(=O)C=C1CC[C@@H]1[C@@H]2[C@@H](O)C[C@@]2(C)[C@H]1CC[C@]2(O)C(=O)COP(=O)([O-])[O-] [HYDROCORTISONE SODIUM PHOSPHATE]	> 46 µM
CO/N=C(/C(=O)N[C@@H]1C(=O)N2C(C(=O)O)=C(CSc3nnnn3C)CS[C@H]12)c1csc(N)n1 [CEFMENOXIME HYDROCHLORIDE]	> 46 µM
C/N=C(\NCc1ccccc1)[NH2+]C.C/N=C(\NCc1ccccc1)[NH2+]C.O=S(=O)([O-])[O-] [Bethanidine Sulfate (2:1)]	> 46 µM
CO[C@@]1(NC(=O)CSC[C@@H](N)C(=O)O)C(=O)N2C(C(=O)O)=C(CSc3nnnn3C)CS[C@@H]21 [CEFMINOX SODIUM]	> 46 µM
O=C([O-])C1=C(CSc2nnnn2CS(=O)(=O)[O-])CS[C@@H]2[C@H](NC(=O)[C@H](O)c3ccccc3)C(=O)N12 [CEFONICID SODIUM]	> 46 µM
CN1CC\C(CC1)=C2\C3=C(CCC4=CC=CC=C24)SC=C3 [PIZOTIFEN]	> 46 µM
CC[C@H](CO)NCCN[C@@H](CC)CO [Ethambutol dihydrochloride]	> 46 µM
Oc1cc(O)c2c(c1)OC(c1ccc(O)c(O)c1)C(O)C2 (configuration not stated) [EPICATECHIN]	> 46 µM
Cc1ccc(S(=O)(=O)[O-])cc1C [Sodium xylenesulfonate]	> 46 µM
NC(=O)C(c1ccccc1)(c1ccccc1)[C@@H]1CCN(CCc2ccc3c(c2)CCO3)C1 [DARIFENACIN HYDROBROMIDE]	> 46 µM
N[S+]([O-])(=O)C1=C(Cl)C=C2\N=C(\CSCC3=CC=CC=C3)N[S+]([O-])(=O)C2=C1 [Benzthiazide]	> 46 µM
O=C(O)Cc1sc(-c2ccccc2)nc1-c1ccc(Cl)cc1 [Fentiazac]	> 46 µM
[H][C@]12CC[N@@]3CC=C(COC(=O)[C@](C)(O)[C@](C)(O)[C@@]([H])(C)C(=O)O1)[C@]23[H] [Monocrotaline]	> 46 µM
O=C(NC(O)C(Cl)(Cl)Cl)NC(O)C(Cl)(Cl)Cl (configuration not stated) [Dicloralurea]	> 46 µM
Cn1c(=O)c2c(ncn2C)n(C)c1=O [Caffeine, citrated]	> 46 µM
c1ccc(-c2ccc(C(c3ccccc3)n3ccnc3)cc2)cc1 (configuration not stated) [BIFONAZOLE]	> 46 µM
CCCCCCCCCCCC(=O)[O][Sn]([CH2]CCC)([CH2]CCC)[O]C(=O)CCCCCCCCCCC [DIBUTYLTIN DILAURATE]	> 46 µM
CC1CC(O)CC(C)(C)C1 (configuration not stated) [3,3,5-TRIMETHYLCYCLOHEXANOL]	> 46 µM
CC(Cc1ccc2c(c1)OCO2)NO (configuration not stated) [(?)-N-Hydroxy-3,4-methylenedioxyamphetamine]	> 46 µM
O\C1=C(/C2CCC(CC2)C3=CC=C(Cl)C=C3)C(=O)C4=C(C=CC=C4)C1=O (configuration not stated) [Atovaquone]	> 46 µM
